Source: patent US20140045908A1, “HSP90 INHIBITORY COMPOUNDS IN TREATING JAK/STAT SIGNALING-MEDIATED CANCERS” (SYNTA PHARMACEUTICALS CORP., priority 2011, published 2014)

How the values were obtained:
Format in all cases: cell-based, human
[1] = system: JAK/STAT signaling in SET-2 cells; assay: Western blot of JAK/STAT signaling in SET-2 cells; details: 24 h
Experimental: SET-2 cells were dosed with the indicated concentrations of ganetespib or 17-AAG for 24 h and analyzed to determine JAK/STAT protein and target levels using the antibodies indicated.
(§1) Cells were disrupted in lysis buffer (CST) and solubilized in 2% SDS. Xenograft tumors (average volume of 100-200 mm3) were excised, cut in half, and flash frozen in liquid nitrogen. Each tumor fragment was lysed in 0.5 mL of lysis buffer using a FastPrep-24 homogenizer and Lysing Matrix A (MP Biomedicals, Solon, Ohio, USA) and lysates clarified by centrifugation. Equal amounts of proteins were resolved by SDS-PAGE and immunoblotted with indicated antibodies. The antigen-antibody complex was visualized and quantitated using an Odyssey system (LI-COR, Lincoln, Nebr., USA).

[2] = system: JAK2 dependent signaling in HEL92.1.7 cells; assay: Western blot of JAK/STAT signaling in HEL92.1.7 cells; details: 250 nM ganetespib or 1000 nM P6
Experimental: FIG. 2 compares the more durable ganetespib durable inhibition of JAK/STAT signaling to P6. HEL92.1.7 cells were cultured in the presence of 250 nM Ganetespib or 1000 nM P6 and harvested at the indicated time points. The levels of JAK2, phosphorylated and total STAT3 and STAT5, phospho-AKT, phospho-ERK and GAPDH were determined by western blot.
as §1

[3] = system: JAK2/STAT3 signaling in HCC827 cells; assay: Western blot of constitutive and IL-6 induced STAT3 activity in HCC827 cells
Experimental: HCC827 lung cancer cells were treated with increasing concentrations of ganetespib or P6 for 24 h followed by a 15 min stimulation with or without 50 ng/ml human recombinant IL-6. The levels of JAK2, total and phospho-STAT3, and PIM2 were analyzed by western blot. GAPDH is included as a loading control.
as §1

[4] = system: JAK/STAT target and cell cycle gene expression in HEL92.1.7 cells; assay: RNA expression profiling (RT-PCR, Affymetrix) in HEL92.1.7 cells; details: 4 hour P6 (1000 nM), 24 hour ganetespib (250 nM)
Experimental: HEL92.1.7 cells were treated with DMSO, P6 (100 or 1000 nM) or ganetespib (25 or 250 nM) for 4 h or 24 h, and total RNA extracted using Trizol (Invitrogen). RNA was purified with the RNeasy kit (Qiagen, Hilden, Germany) and converted to cDNA via an iScript kit (BioRad, Hercules, Calif., USA). Oligonucleotide primers were purchased from SABiosciences (Frederick, Md., USA). PCR was done with iQ SYBR Green Supermix (Bio-Rad), and levels of the tested genes were normalized to HPRT expression using the comparative Ct method.
Biotinylated aRNA was generated by in vitro transcription using Affymetrix GeneChip Expression IVT labeling kit (Affymetrix, Santa Clara, Calif., USA). Fifteen micrograms of labeled aRNA was fragmented and hybridized to Affymetrix GeneChip Human Genome U133 Plus 2 arrays and scanned using a GeneChip Scanner (Affymetrix). Array data were analyzed with the Affymetrix Expression Console Software utilizing the MASS algorithm. In order to generate a threshold for identifying probe sets that have large differences between 1000 nM P6 (4 h) and 250 nM ganetespib (24 h) arrays and their controls in the absence of treatment replicates, data from four control arrays (DMSO only; two at 4 h, and two at 24 h) were used to create an expression level dependent fold-difference envelope that reflects the increasing measurement variability as expression level decreases. This envelope, used in lieu of a fixed fold-difference criteria, was formed by identifying the xth percentile expression-level difference (where x was large, typically 99.9%) at each mean expression level bin. To achieve this, data were used from the six possible comparisons from the four DMSO-only arrays. The resulting, smoothed threshold fold-difference envelope was then applied to the two compound-treated/control array pairs to identify those probe-sets that have large expression level differences between treatment and control. For hierarchical analysis, genes with greater than two fold changes in expression with 250 nM ganetespib were clustered using established algorithms in Cluster (49) and a subset visualized by TreeView.

[5] = system: HEL92.1.7 cells; assay: Flow cytometry cell cycle analysis
Experimental: HEL92.1.7 cells were plated at 0.5×10^6 cells/mL and treated as indicated. Cells were harvested and stained with propidium iodide using the BD Cycle TEST PLUS Reagent Kit (BD Biosciences, San Jose, Calif., USA) according to the manufacturer's instructions. Twenty thousand cells were analyzed for their DNA content using a FACS Caliber cytometer (BD Biosciences).

[6] = system: HEL92.1.7 cells; assay: Cell viability assay (AlamarBlue, 72 h)
Experimental: All cell lines were obtained from the ATCC (Rockville, Md., USA), with the exception of SET-2 cells which were purchased from the German Collection of Microorganisms and Cell Cultures (DSMZ, Germany). Cells were maintained and cultured according to standard techniques at 37° C. in 5% (v/v) CO2 using culture medium recommended by the supplier.
Cells were grown in 96-well plates based on optimal growth rates determined empirically for each line. Twenty-four hours after plating, cells were dosed with the indicated compound or DMSO (0.3%) for 72 h. AlamarBlue (Invitrogen, Carlsbad, Calif., USA) was added (10% v/v) to the cells, and the plates were incubated for 3 h and subjected to fluorescence detection (Ex=545 nm, Em=600 nm) in a SpectraMax Plus 384 microplate reader (Molecular Devices, Sunnyvale, Calif., USA). Data are normalized to percent of control, with IC50 values based on a four-parameter logistic dose response curve (model 205) using XLfit version 5.1 from IDBS (Guildford, U.K.).

[7] = system: Cdk1, phospho-Chk2, cyclins in HEL92.1.7 cells; assay: Western blot of cell cycle proteins in HEL92.1.7 cells; details: ganetespib 250 nM or P6 1000 nM, 24-48 h
Experimental: Cells were harvested at the indicated time points and the levels of total and phospho-Cdk1, phospho-Chk2 and GAPDH analyzed by western blot.
FIG. 12 illustrates the effects of ganetespib on JAK/STAT and cell cycle protein expression. HEL92.1.7 cells were treated with 100 nM ganetespib and subject to western blot to determine the levels of Cdk1, cyclin B1, cyclin A1, JAK2, total and phospho-STAT3, and GAPDH at hourly intervals over an 11 h time course.
as §1

[8] = 24 h, absence of external ligand

Row | SMILES | fold less potent than ganetespib, effects on JAK/STAT signaling [1] | JAK2 dependent signaling (phospho-STAT3, phospho-STAT5, ERK signaling) [2] | JAK2 expression [3, 8] | constitutive STAT3 activity [3, 8] | JAK/STAT signaling stimulated by exogenous IL-6 ([3]; 24 h then 15 min 50 ng/ml IL-6) | expression of JAK/STAT target genes (SOCS and PIM family members) [4] | cell cycle distribution [5] | fold less potency than ganetespib, loss of cellular viability [6] | IC50 ([6]; 72 h, Alamar blue, read-out: IC50, loss of cellular viability) | Cdk1 protein expression [7]
1 | C=CCNC1=C2C[C@@H](C)C[C@H](OC)[C@H](O)[C@@H](C)/C=C(\C)[C@H](OC(N)=O)[C@@H](OC)/C=C\C=C(/C)C(=O)NC(=CC1=O)C2=O [17-AAG, reference compound] | 200 fold | – | – | – | – | – | – | – | – | –
2 | CC(C)(C)c1nc2c3cc[nH]c(=O)c3c3cc(F)ccc3c2[nH]1 [P6, reference compound] | – | blocked JAK2 dependent signaling | did not influence total JAK2 protein levels | downregulated constitutive STAT3 activity | blocked JAK/STAT signaling stimulation | downregulated | accumulation in G1 phase only, without the loss of S phase or G2/M arrest | 30 fold | 614 nM | no effect on Cdk1 expression
